Experimental data reported in patent US20240158446A1, “CYCLIC COMPOUND HAVING SELECTIVE INHIBITORY ACTION ON KRAS OVER HRAS AND NRAS” (CHUGAI SEIYAKU KABUSHIKI KAISHA, priority 2021, published 2024).
Read-outs that look alike come from different tables or passages of the source.

How the values were obtained:
[1] = target: GDP-bound KRAS wild-type protein (Homo sapiens, UniProt P01116); assay: Binding to KRAS by surface plasmon resonance (SPR), Single Cycle Kinetics; conditions: GDP-bound KRAS wild-type protein, read-out: KRAS KD
[2] = target: GDP-bound HRAS wild-type protein (Homo sapiens, UniProt P01112); assay: Binding to HRAS by surface plasmon resonance (SPR), Single Cycle Kinetics; conditions: for HRAS/KRAS (ratio of KD value for HRAS to KD value for KRAS): SPR, GDP-bound HRAS wild-type protein vs GDP-bound KRAS wild-type protein
[3] = target: GDP-bound NRAS wild-type protein (Homo sapiens, UniProt P01111); assay: Binding to NRAS by surface plasmon resonance (SPR), Single Cycle Kinetics; conditions: for NRAS/KRAS (ratio of KD value for NRAS to KD value for KRAS): SPR, GDP-bound NRAS wild-type protein vs GDP-bound KRAS wild-type protein
[4] = tested on: human lung cancer strain NCI-H441;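 also: cell proliferation inhibition after four days measured by CellTiter-Glo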
[5] = SPR, Single Cycle Kinetics, 1:1 binding model

Chain of GDP-bound NRAS wild-type protein (P01111 whole entry): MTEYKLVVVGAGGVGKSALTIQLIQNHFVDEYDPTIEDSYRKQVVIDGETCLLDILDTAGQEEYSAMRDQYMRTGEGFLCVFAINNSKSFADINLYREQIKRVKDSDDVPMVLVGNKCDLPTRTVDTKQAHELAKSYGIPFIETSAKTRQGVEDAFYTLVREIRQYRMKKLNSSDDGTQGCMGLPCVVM
Chain of GDP-bound HRAS wild-type protein (P01112 whole entry): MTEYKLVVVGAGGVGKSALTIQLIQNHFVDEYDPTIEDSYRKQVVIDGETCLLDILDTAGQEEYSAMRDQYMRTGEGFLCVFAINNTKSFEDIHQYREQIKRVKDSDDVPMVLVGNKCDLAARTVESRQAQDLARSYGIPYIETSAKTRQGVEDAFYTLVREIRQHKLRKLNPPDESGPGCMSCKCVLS
Chain of GDP-bound KRAS wild-type protein (P01116 whole entry): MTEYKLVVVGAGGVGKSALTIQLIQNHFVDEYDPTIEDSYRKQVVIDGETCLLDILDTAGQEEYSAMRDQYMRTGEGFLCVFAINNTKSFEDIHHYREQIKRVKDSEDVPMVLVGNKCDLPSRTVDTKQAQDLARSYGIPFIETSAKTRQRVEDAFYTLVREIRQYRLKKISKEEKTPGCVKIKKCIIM

CCO[C@@H]1C[C@H]2C(=O)NC3(CC(C)(C)C3)C(=O)N(C)[C@@H](C(CC)CC)C(=O)N(C)[C@H](C(=O)N(C)C)CC(=O)N(C)[C@@H](CC3CC3)C(=O)N[C@@H]([C@@H](C)CC)C(=O)N(C)CC(=O)N(C)[C@H]3C/C=C\CCN(C3=O)[C@@H](CC3CCC(F)(F)CC3)C(=O)N(C)CC(=O)N[C@@H](CCc3cc(F)c(C(F)(F)F)c(F)c3)C(=O)N2C1 [PP2485]
Kd ([1]; SPR, Single Cycle Kinetics): 0.78 nM
HRAS/KRAS (ratio of KD value for HRAS to KD value for KRAS) [2]: A (a compound having 10 or more and less than 20 is denoted as A)
NRAS/KRAS (ratio of KD value for NRAS to KD value for KRAS) [3]: A (a compound having 10 or more and less than 20 is denoted as A)
IC50 [4]: 55.5 nM

CCOC[C@H]1C(=O)N[C@@H]([C@@H](C)CC)C(=O)N(C)CC(=O)N(C)[C@H]2C/C=C\CCN(C2=O)[C@@H](Cc2ccc(C(F)(F)F)cc2)C(=O)N(C)CC(=O)N[C@@H](CCc2ccc(C(F)(F)F)c(OC)c2)C(=O)N2C[C@H](OCC)C[C@H]2C(=O)NC2(CC(C)(C)C2)C(=O)N(C)[C@@H](CC2CCC2)C(=O)N(C)[C@H](C(=O)N(C)C)CC(=O)N1C [PP2765]
Kd ([1]; SPR Single Cycle Kinetics, 1:1 binding model): 0.7 nM
HRAS/KRAS (ratio of KD value with respect to GDP-bound HRAS wild-type protein to KD value with respect to KRAS) ([2]; SPR KD ratio HRAS/KRAS, class symbols): A (a compound having 10 or more and less than 20 is denoted as A)
NRAS/KRAS (ratio of KD value with respect to GDP-bound NRAS wild-type protein to KD value with respect to KRAS) ([3]; SPR KD ratio NRAS/KRAS, class symbols): A (a compound having 10 or more and less than 20 is denoted as A)
IC50 [4]: 180 nM

CCO[C@@H]1C[C@H]2C(=O)NC3(CCC3)C(=O)N(C)[C@@H](C3CCCC3)C(=O)N(C)[C@H](C(=O)N(C)C)CC(=O)N(C)[C@@H](CC(C)C)C(=O)N[C@@H]([C@@H](C)CC)C(=O)N(C)CC(=O)N(C)[C@H]3C/C=C\CCN(C3=O)[C@@H](Cc3ccc(F)cc3)C(=O)N(C)CC(=O)N[C@@H](CCc3ccc(Cl)c(Cl)c3)C(=O)N2C1 [PP1482]
Kd [1, 5]: 0.45 nM
HRAS/KRAS (ratio of KD value for HRAS to KD value for KRAS) ([2]; KD ratio class): B (a compound having 3 or more and less than 10 is denoted as B)
NRAS/KRAS (ratio of KD value for NRAS to KD value for KRAS) ([3]; KD ratio class): A (a compound having 10 or more and less than 20 is denoted as A)
IC50 [4]: 76.4 nM

CCO[C@@H]1C[C@H]2C(=O)NC3(CCOCC3)C(=O)N(C)[C@@H](C3CCCC3)C(=O)N(C)[C@H](C(=O)N(C)C)CC(=O)N(C)[C@@H](CC)C(=O)N[C@@H]([C@@H](C)CC)C(=O)N(C)CC(=O)N(C)[C@H]3C/C=C\CCN(C3=O)[C@@H](Cc3ccc(C(F)(F)F)cc3)C(=O)N(C)CC(=O)N[C@@H](CCc3cc(F)c(C(F)(F)F)c(F)c3)C(=O)N2C1 [PP1279]
Kd [1, 5]: 0.27 nM
HRAS/KRAS (ratio of KD value for HRAS to KD value for KRAS) ([2]; KD ratio class): A (a compound having 10 or more and less than 20 is denoted as A)
NRAS/KRAS (ratio of KD value for NRAS to KD value for KRAS) ([3]; KD ratio class): A (a compound having 10 or more and less than 20 is denoted as A)
IC50 [4]: 72.6 nM

CCO[C@@H]1C[C@H]2C(=O)NC3(CCC3)C(=O)N(C)[C@@H](C(CC)CC)C(=O)N(C)[C@H](C(=O)N(C)C)CC(=O)N(C)[C@@H](CC(C)C)C(=O)N[C@@H]([C@@H](C)CC)C(=O)N(C)CC(=O)N(C)[C@H]3C/C=C\CCN(C3=O)[C@@H](CC3CCC(F)(F)CC3)C(=O)N(C)CC(=O)N[C@@H](CCc3cc(F)c(C(F)(F)F)c(F)c3)C(=O)N2C1 [PP1433]
Kd [1, 5]: 0.46 nM
HRAS/KRAS (ratio of KD value for HRAS to KD value for KRAS) ([2]; KD ratio class): A (a compound having 10 or more and less than 20 is denoted as A)
NRAS/KRAS (ratio of KD value for NRAS to KD value for KRAS) ([3]; KD ratio class): AA (a compound having 20 or more is denoted as AA)
IC50 [4]: 44.4 nM

CCO[C@@H]1C[C@H]2C(=O)NC3(CCC3)C(=O)N(C)[C@@H](C3CCCC3)C(=O)N(C)[C@H](C(=O)N(C)C)CC(=O)N(C)[C@@H](Cc3ccccc3)C(=O)N[C@@H]([C@@H](C)CC)C(=O)N(C)CC(=O)N(C)[C@H]3CCCCCN(C3=O)[C@@H](Cc3ccc(F)cc3)C(=O)N(C)CC(=O)N[C@@H](CCc3cc(F)c(C(F)(F)F)c(F)c3)C(=O)N2C1 [PP1195]
Kd ([1]; SPR, Single Cycle Kinetics): 0.074 nM
HRAS/KRAS (ratio of KD value for HRAS to KD value for KRAS) [2]: B (a compound having 3 or more and less than 10 is denoted as B)
NRAS/KRAS (ratio of KD value for NRAS to KD value for KRAS) [3]: B (a compound having 3 or more and less than 10 is denoted as B)
IC50 [4]: 18.3 nM
